In ChEMBL document CHEMBL2396624, “Rearranged limonoids and chromones from Harrisonia perforata and their anti-inflammatory activity” (Bioorg Med Chem Lett, 2013):

Test system: J774.A1
Assay: Antiinflammatory activity in mouse J774A1 cells assessed as reduction of LPS-induced iNOS expression after 6 to 12 hrs by Western blot analysis
Type: functional, cell-based
Details: not given

Row | Compound | Activity
1 | COC(=O)/C=C\[C@]1(C)[C@H]2CC[C@@]3(C)[C@H](C4=CC(O)OC4=O)OC(=O)[C@H]4O[C@]43[C@]2(C)[C@]2(O)OC(C)(C)C(=O)[C@@]21O (some centres not stated) [HARPERFOLIDE] | Dose-dependent effect

Test system: not listed separately
Assay: Cytotoxicity against mouse J774A1 cells assessed as cell viability at 2.5 to 20 uM after 20 hrs by MTT assay
Type: cell-based
Details: j774.a1, 20 h

Row | Compound | Activity
2 | COC(=O)/C=C\[C@]1(C)[C@H]2CC[C@@]3(C)[C@H](C4=CC(O)OC4=O)OC(=O)[C@H]4O[C@]43[C@]2(C)[C@]2(O)OC(C)(C)C(=O)[C@@]21O (some centres not stated) [HARPERFOLIDE] | Non-toxic

Test system: not listed separately
Assay: Antiinflammatory activity in mouse J774A1 cells assessed as reduction of LPS-induced nitric oxide production treated 2 hrs before LPS addition measured after 20 hrs by using Griess reagent
Type: functional, cell-based
Details: J774.A1

Row | Compound | IC50
3 | COC(=O)/C=C\[C@]1(C)[C@H]2CC[C@@]3(C)[C@H](c4ccoc4)OC(=O)[C@H]4O[C@]43[C@]2(C)[C@]2(O)OC(C)(C)C(=O)[C@@]21O [HARRISONIN] | 135 µM
4 | COc1cc2c(c3oc(C)cc(=O)c13)C=CC(C)(C)O2 | 66.4 µM
5 | CC1(C)OC(=O)C=C[C@]2(C)[C@H]3CC[C@@]4(C)[C@H](c5ccoc5)OC(=O)[C@H]5O[C@]54[C@]3(C)C(=O)C[C@@H]12 [OBACUNONE] | 83.6 µM
6 | C[C@H]1c2ccoc2C[C@H]2[C@H]1CC[C@@H]1[C@]2(C)CCC[C@]1(C)C(=O)O [(+)-VOUACAPENIC ACID] | 132 µM
7 | COC(=O)c1cc(=O)c2c(O)cc3c(c2o1)C=CC(C)(C)O3 | 55 µM
8 | CC(=O)c1c(O)c(CC=C(C)C)c(O)c2c1O[C@](C)(CCC=C(C)C)[C@H](OO)C2 | 31 µM

Further compounds by falling IC50, results first:

Row | IC50 | Compound
9 | 56.4 µM | COc1cc2oc(C)cc(=O)c2c(O)c1CC=C(C)C
10 | 49.6 µM | COc1cc(O)c2c(=O)cc(C)oc2c1CCC(C)(C)O [HARPERAMONE]
11 | 28.4 µM | COc1ccc2c(c1)c(CC(=O)O)c(C)n2C(=O)c1ccc(Cl)cc1 [INDOMETHACIN]
12 | 6.51 µM | COC(=O)/C=C\[C@]1(C)[C@H]2CC[C@@]3(C)[C@H](C4=CC(O)OC4=O)OC(=O)[C@H]4O[C@]43[C@]2(C)[C@]2(O)OC(C)(C)C(=O)[C@@]21O (some centres not stated) [HARPERFOLIDE]
